Laboratory results as given in patent US11623924B2, “Modulators of alpha-1 antitrypsin” (Vertex Pharmaceuticals Incorporated, priority 2018, dated 2023).

What follows are molecules tested against T1, NL20 human bronchial epithelial cells expressing human Z-AAT (Homo sapiens, UniProt P01009, E366K) (assay: AAT Function Assay (MSD Assay NL20-SI Cell Line)). Details: NL20 Func. (EC50), functionally active AAT (AAT-hNE complex) in supernatant of NL20 cells expressing human Z-AAT.
T1 construct: expressed in transfected cells; host or cells: NL20 human bronchial epithelial cells (NL20-SI line, doxycycline added)
T1 sequence (P01009 25-418 E366K): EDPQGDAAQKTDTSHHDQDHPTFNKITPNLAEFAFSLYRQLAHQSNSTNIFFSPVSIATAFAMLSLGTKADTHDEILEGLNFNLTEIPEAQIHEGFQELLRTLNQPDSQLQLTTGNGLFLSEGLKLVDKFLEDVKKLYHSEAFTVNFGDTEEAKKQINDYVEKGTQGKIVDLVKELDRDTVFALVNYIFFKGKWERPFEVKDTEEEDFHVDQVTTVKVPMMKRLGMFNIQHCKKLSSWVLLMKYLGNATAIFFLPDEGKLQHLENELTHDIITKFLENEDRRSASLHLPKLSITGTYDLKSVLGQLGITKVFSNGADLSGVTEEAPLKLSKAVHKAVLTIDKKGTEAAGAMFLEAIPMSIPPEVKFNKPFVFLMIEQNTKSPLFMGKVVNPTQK
Assay type: cell-based
Outline: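 NL20 cells expressing Z-AAT, seeded 16,000 cells/well, received compound with doxycycline (0.1 μM final) and were incubated overnight at 37° C. Supernatants, diluted 45-fold in total, reacted with excess human neutrophil elastase; AAT-elastase complex captured on anti-AAT plates, detected with Sulfo-tagged anti-elastase by MSD electrochemiluminescence, and quantified against M-AAT standards (0.156-320 ng/mL).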

SMILES | EC50 [µM]
CC(C)c1c(C#N)c2cc3[nH]ncc3cc2n1-c1ccccc1 [Compound 42, 6-isopropyl-5-phenyl-1H-pyrrolo[2,3-f]indazole-7-carbonitrile] | 1.16 to 3
CC(C)c1c(CCC(=O)O)c2nc3[nH]ncc3nc2n1-c1ccc(F)cc1 [Compound 204, 3-[10-(4-fluorophenyl)-11-isopropyl-2,4,5,8,10-pentazatricyclo[7.3.0.03,7]dodeca-1,3(7),5,8,11-pentaen-12-yl]propanoic Acid] | > 3

Same assay, conditions: functionally active AAT (AAT-hNE complex) in supernatant of NL20 cells expressing human Z-AAT; read-out: NL20 Func. (EC50)

SMILES | EC50 [µM]
Cc1c2[nH]ncc2cc2c1c(C1CC3(CC(C(=O)O)C3)C1)c(C1CCOCC1)n2-c1ccc(F)c(F)c1 (centres unmarked) [Compound 131, 6-[5-(3,4-difluorophenyl)-8-methyl-6-tetrahydropyran-4-yl-1H-pyrrolo[2,3-f]indazol-7-yl]spiro[3.3]heptane-2-carboxylic acid] | < 1.16
Cc1cc(-n2c(C(C)C)c(C3CC4(CC(C(=O)O)C4)C3)c3cc4[nH]nc(C)c4cc32)ccc1F (racemic) [Compound 56, 6-[5-(4-fluoro-3-methyl-phenyl)-6-isopropyl-3-methyl-1H-pyrrolo[2,3-f]indazol-7-yl]spiro[3.3]heptane-2-carboxylic acid] | 1.16 to 3
CCOC(=O)[C@@H]1C[C@@H]1c1c(C(C)C)n(-c2ccc(F)c(C)c2)c2cc3cn[nH]c3cc12 (racemic) [Compound 15, ethyl (1R,2S)-2-[5-(4-fluoro-3-methyl-phenyl)-6-isopropyl-1H-pyrrolo[2,3-f]indazol-7-yl]cyclopropanecarboxylate] | > 3
O=C(O)C1CC2(C1)CC(c1c(C3CCOCC3)n(-c3ccccc3)c3cc4cn[nH]c4cc13)C2 (centres unmarked) [Compound 123, 6-(5-phenyl-6-tetrahydropyran-4-yl-1H-pyrrolo[2,3-f]indazol-7-yl)spiro[3.3]heptane-2-carboxylic Acid] | 1.16 to 3
CC(C)c1c(CCC(=O)N2C[C@@H](O)[C@H](O)C2)c2cc3[nH]ncc3cc2n1-c1ccc(F)cc1 [Compound 212, 1-[(3R,4R)-3,4-dihydroxypyrrolidin-1-yl]-3-[5-(4-fluorophenyl)-6-isopropyl-1H-pyrrolo[2,3-f]indazol-7-yl]propan-1-one] | > 3
Cc1cc(-n2c(C3CCOCC3)c(C3CC4(CC(C(=O)O)C4)C3)c3cc4[nH]nc(C)c4cc32)ccc1F (single isomer, unassigned) [Compound 127, 6-[5-(4-fluoro-3-methyl-phenyl)-3-methyl-6-tetrahydropyran-4-yl-1H-pyrrolo[2,3-f]indazol-7-yl]spiro[3.3]heptane-2-carboxylic acid] | < 1.16
CC(C)c1c(C23CC(C(=O)O)(C2)C3)c2cc3[nH]ncc3cc2n1-c1ccc(F)cc1 [Compound 210, 3-(5-(4-fluorophenyl)-6-isopropyl-1,5-dihydropyrrolo[2,3-f]indazol-7-yl)bicyclo[1.1.1]pentane-1-carboxylic Acid] | < 1.16
CC(C)c1c(/C=C/C(=O)O)c2cc3[nH]ncc3cc2n1-c1ccc(F)cc1 [Compound 31, (E)-3-[5-(4-fluorophenyl)-6-isopropyl-1H-pyrrolo[2,3-f]indazol-7-yl]prop-2-enoic Acid] | 1.16 to 3
Cc1cc(-n2c(C(C)C)c(C3CC4(CC(C(=O)O)C4)C3)c3cc4[nH]nc(C)c4cc32)ccc1F (single isomer, unassigned) [Compound 57, 6-[5-(4-fluoro-3-methyl-phenyl)-6-isopropyl-3-methyl-1H-pyrrolo[2,3-f]indazol-7-yl]spiro[3.3]heptane-2-carboxylic acid] | 1.16 to 3
CC(C)c1c(CCC(=O)O)c2nc3[nH]ncc3cc2n1-c1ccc(F)cc1 [Compound 203, 3-[10-(4-fluorophenyl)-11-isopropyl-2,4,5,10-tetrazatricyclo[7.3.0.03,7]dodeca-1,3(7),5,8,11-pentaen-12-yl]propanoic Acid] | > 3
Cc1cc(-n2c(C(C)C)c(CC(C)C(=O)O)c3cc4[nH]ncc4cc32)ccc1F (racemic) [Compound 19] | < 1.16
Cc1cc(-n2c(C(C)C)c(C3CC4(CC(C(=O)O)C4)C3)c3cc4[nH]nc(C)c4cc32)ccc1F (single isomer, unassigned) [Compound 58, 6-[5-(4-fluoro-3-methyl-phenyl)-6-isopropyl-3-methyl-1H-pyrrolo[2,3-f]indazol-7-yl]spiro[3.3]heptane-2-carboxylic acid] | 1.16 to 3
CC(C)c1c(C#N)c2cc3[nH]ncc3cc2n1-c1cccc(Cl)c1 [Compound 45, 5-(3-chlorophenyl)-6-isopropyl-1H-pyrrolo[2,3-f]indazole-7-carbonitrile] | > 3
Cc1cc(-n2c(C(C)C)c(CC(C)C(=O)O)c3cc4[nH]ncc4cc32)ccc1F (single isomer, unassigned) [Compound 21] | < 1.16
CC(C)c1c(CCC(=O)OC2O[C@H](C(=O)O)[C@@H](O)[C@H](O)[C@H]2O)c2cc3[nH]ncc3cc2n1-c1ccc(F)cc1 (stereo in doubt) [Compound 173, (2S,3S,4S,5R)-6-[3-[5-(4-fluorophenyl)-6-isopropyl-1H-pyrrolo[2,3-f]indazol-7-yl]propanoyloxy]-3,4,5-trihydroxy-tetrahydropyran-2-carboxylic Acid] | > 3
O=C(O)[C@H]1C[C@@H](c2c(C3CCOCC3)n(-c3ccc(F)cc3)c3cc4cn[nH]c4cc32)C1 [Compound 112] | > 3
CC(=O)N1CCC(Cc2c(C3CCOCC3)n(-c3ccc(F)cc3)c3cc4cn[nH]c4cc23)CC1 [Compound 153, 1-[4-[[5-(4-fluorophenyl)-6-tetrahydropyran-4-yl-1H-pyrrolo[2,3-f]indazol-7-yl]methyl]-1-piperidyl]ethanone] | 1.16 to 3
COCC(C)(C)c1c(CCC(N)=O)c2cc3[nH]ncc3cc2n1-c1ccc(F)cc1 [Compound 183] | > 3
Cc1n[nH]c2cc3c(C4CC5(CC(C(=O)O)C5)C4)c(C4CCOCC4)n(-c4ccc(F)c(F)c4)c3cc12 (racemic) [Compound 129, 6-[5-(3,4-difluorophenyl)-3-methyl-6-tetrahydropyran-4-yl-1H-pyrrolo[2,3-f]indazol-7-yl]spiro[3.3]heptane-2-carboxylic Acid] | > 3
Cc1cc(-n2c(C(C)C)cc3cc4[nH]ncc4cc32)ccn1 [Compound 43, 6-isopropyl-5-(2-methyl-4-pyridyl)-1H-pyrrolo[2,3-f]indazole] | > 3

Now from value to molecule:

EC50 [µM] | SMILES
> 3 | C=Cc1c(C(C)C)n(-c2ccc(F)c(C)c2)c2cc3cn[nH]c3cc12 [Compound 12, 5-(4-fluoro-3-methyl-phenyl)-6-isopropyl-7-vinyl-1H-pyrrolo[2,3-f]indazole]
> 3 | CC(C)c1c(CCC(=O)O)c2cc3[nH]ncc3cc2n1-c1cccc(C(F)F)c1 [Compound 37, 3-[5-[3-(difluoromethyl)phenyl]-6-isopropyl-1H-pyrrolo[2,3-f]indazol-7-yl]propanoic Acid]
< 1.16 | Cc1cc(-n2c(C(C)C)c(C3CC(C(=O)O)C3)c3cc4[nH]ncc4cc32)ccc1F (mixture of isomers) [Compound 18]
> 3 | O=C(O)[C@H]1C[C@@H](c2c(C3CCOCC3)n(-c3ccc(F)c(F)c3)c3cc4cn[nH]c4cc32)C1 [Compound 65]
> 3 | C[C@H](O)C(=O)N1CC2(CC(c3c(C4CCOCC4)n(-c4ccc(F)c(F)c4)c4cc5cn[nH]c5cc34)C2)C1 [Compound 184, (2S)-1-[6-[5-(3,4-difluorophenyl)-6-tetrahydropyran-4-yl-1H-pyrrolo[2,3-f]indazol-7-yl]-2-azaspiro[3.3]heptan-2-yl]-2-hydroxy-propan-1-one]
1.16 to 3 | Cc1cc(-n2c(C(C)C)c(S(C)(=O)=O)c3cc4[nH]ncc4cc32)ccc1F [Compound 11, 5-(4-fluoro-3-methyl-phenyl)-6-isopropyl-7-methylsulfonyl-1H-pyrrolo[2,3-f]indazole]
1.16 to 3 | N#CCCCc1c(C2CCOCC2)n(-c2ccc(F)cc2)c2cc3cn[nH]c3cc12 [Compound 148]
> 3 | Cc1cc(-n2c(C3CCOCC3)c(CCC(=O)O)c3cc4[nH]ncc4cc32)ccc1F [Compound 86]
< 1.16 | CC(C)c1c(C2CC3(CC(C(=O)O)C3)C2)c2cc3[nH]ncc3cc2n1-c1ccc(F)cc1 (single isomer, unassigned) [Compound 36, 6-[5-(4-fluorophenyl)-6-isopropyl-1H-pyrrolo[2,3-f]indazol-7-yl]spiro[3.3]heptane-2-carboxylic acid]
1.16 to 3 | C=C(C)c1c(CCC(=O)O)c2cc3[nH]ncc3cc2n1-c1ccc(F)cc1 [Compound 192, 3-[5-(4-fluorophenyl)-6-isopropenyl-1H-pyrrolo[2,3-f]indazol-7-yl]propanoic Acid]
1.16 to 3 | O=C(O)C1CC2(C1)CC(c1c(C3C[C@H]4CC[C@@H](C3)O4)n(-c3ccc(F)cc3)c3cc4cn[nH]c4cc13)C2 (mixture of isomers) [Compound 122, 6-[5-(4-fluorophenyl)-6-(8-oxabicyclo[3.2.1]octan-3-yl)-1H-pyrrolo[2,3-f]indazol-7-yl]spiro[3.3]heptane-2-carboxylic Acid]
< 1.16 | N#Cc1c2[nH]ncc2cc2c1c(C1CC3(CC(C(=O)O)C3)C1)c(C1CCOCC1)n2-c1ccc(F)c(F)c1 (centres unmarked) [Compound 133, 6-[8-cyano-5-(3,4-difluorophenyl)-6-tetrahydropyran-4-yl-1H-pyrrolo[2,3-f]indazol-7-yl]spiro[3.3]heptane-2-carboxylic acid]
< 1.16 | O=C(O)C1CC2(C1)CC(c1c(C3CCOCC3)n(-c3ccc(F)c(F)c3)c3cc4cn[nH]c4c(Br)c13)C2 (centres unmarked) [Compound 134, 6-[8-bromo-5-(3,4-difluorophenyl)-6-tetrahydropyran-4-yl-1H-pyrrolo[2,3-f]indazol-7-yl]spiro[3.3]heptane-2-carboxylic Acid]
